Results as given in publication PMC11091889, “Silver Organometallics that are Highly Potent Thioredoxin and Glutathione Reductase Inhibitors: Exploring the Correlations of Solution Chemistry with the Strong Antibacterial Effects” (ACS Infectious Diseases, 2024).

What was measured:
[1] = Conductometry: molar conductivity of silver complexes in DMSO; assay type: physicochemical; conditions: 1.0 mM in DMSO, calculated as monocarbene (NHC)AgX
In short: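 Molar conductivity of each silver complex was measured at 1.0 mM in freshly distilled DMSO (specific conductivity ≤3 × 10^–8 S cm^–1) using an Apera Instruments EC9500 conductivity meter at 25 ± 2 °C. AgNO3 served as the 1:1 electrolyte reference, and readings were taken after dissolution to distinguish neutral monocarbene from ionic biscarbene forms.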

[2] = tested on: K. pneumoniae (DSM 11678, ATCC33495); experiment: Broth microdilution antibacterial assay; assay type: cell-based, Klebsiella pneumoniae; conditions: n = 3, MHB
In short: (§1)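 Broth microdilution used 2–8 × 10^5 CFU/mL inocula, with compounds serially diluted 64 to 1 μg/mL and incubated 22 h at 37 °C, read at 600 nm. A. baumannii, K. pneumoniae and P. aeruginosa were grown in MHB pH 7.4; E. faecium was grown in TSY pH 7.0–7.2. MIC and EC50 were obtained by curve fitting from three independent experiments.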

[3] = tested on: E. faecium (DSM 20477, ATCC 19434); experiment: Broth microdilution antibacterial assay; assay type: cell-based, Enterococcus faecium; conditions: n = 3, TSY
In short: as §1

[4] = biological target: E. coli thioredoxin reductase (TrxR) (Escherichia coli, UniProt P0A9P4); conditions: read-out: IC50 TrxR from E. coli; ± standard deviation, n = 3, 75 min preincubation
Protocol: (§2) The inhibition of purified E. coli thioredoxin reductase (TrxR) and glutathione reductase (GR) from both E. coli and baker’s yeast was determined according to a previously applied procedure.[59],[60]
(§3) The TrxR (E. coli) and GR (baker’s yeast and E. coli) inhibition assays were performed according to previously published procedures.[62],[75] The assays are partly based on the procedure developed by Lu et al.[60] and make use of the reduction of 5,5′-dithiobis(2-nitrobenzoic acid) (DTNB). Solutions of E. coli TrxR (35.4 U/mL) and E. coli thioredoxin (Trx) (156 μg/mL) (both purchased from Sigma-Aldrich) or baker’s yeast GR (0,08 U/mL, Sigma-Aldrich) or E. coli GR (4.2 U/ml, Antibodies online) and GSSG (0.28 mM, Sigma-Aldrich) in distilled water were prepared, as were fresh 2 mM stock solutions of the test compounds in DMSO. Then, solutions with several concentrations of the test compounds in DMSO were prepared, and 35 μL of each solution was diluted with 965 μL of TE buffer (Tris–HCl 50 mM, EDTA 1 mM, pH 7.5). These solutions (20 μL) or TE buffer without the test compounds (20 μL, as control) were mixed with the TrxR or GR solutions (10 μL), the Trx or GSSG solutions (10 μL), and a solution of NADPH (200 μM) in TE buffer (100 μL) in a well on a 96-well plate. As a blank solution, 200 μM NADPH in TE buffer (100 μL) mixed with a DMSO/buffer mixture (40 μL) was used (final concentrations of DMSO: 0.5% v/v). The plate was incubated for 75 min at 25 °C with moderate shaking. After incubation, 100 μL of a reaction mixture (TE buffer containing 200 μM NADPH and 5 mM DTNB) was added to each well to initiate the reaction. After thorough mixing, the formation of 5-TNB was monitored by a microplate reader at 405 nm in 35 s intervals (10 measurements). The values were corrected by subtraction of the blank solution absorption values. The increase in the concentration of 5-TNB followed a linear trend (r^2 ≥ 0.990), and the enzymatic activities were calculated as the gradients (increase in absorbance per second) thereof. […] The inhibition is presented as the mean IC50 values and standard deviations obtained in three independent experiments.

[5] = biological target: T1, glutathione reductase (GR) from baker's yeast (Saccharomyces cerevisiae, UniProt P41921); experiment: GR inhibition assay (DTNB reduction); assay type: biochemical; conditions: ± standard deviation, n = 3, 75 min preincubation
T1 construct: purchased Sigma-Aldrich
T1 sequence (P41921 17-483 limits assumed): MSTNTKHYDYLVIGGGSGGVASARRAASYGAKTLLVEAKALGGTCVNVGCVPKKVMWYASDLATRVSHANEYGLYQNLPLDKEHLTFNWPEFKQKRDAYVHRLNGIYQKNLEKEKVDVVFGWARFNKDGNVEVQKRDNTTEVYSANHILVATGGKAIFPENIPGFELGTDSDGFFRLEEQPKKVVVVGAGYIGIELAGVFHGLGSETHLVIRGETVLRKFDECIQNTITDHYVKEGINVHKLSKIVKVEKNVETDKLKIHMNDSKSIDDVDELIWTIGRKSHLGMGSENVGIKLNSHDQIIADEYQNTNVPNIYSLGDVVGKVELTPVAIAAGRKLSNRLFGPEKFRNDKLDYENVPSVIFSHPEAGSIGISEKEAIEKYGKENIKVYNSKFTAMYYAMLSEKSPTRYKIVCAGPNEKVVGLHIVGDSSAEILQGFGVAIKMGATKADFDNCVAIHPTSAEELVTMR
Protocol: as §2, §3

[6] = tested on: E. coli (DSM1116, ATCC 9637); experiment: microbe, parasite or virus in culture; assay type: cell-based, Escherichia coli
In short: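 Escherichia coli DSM1116 (ATCC 9637) was tested by broth microdilution in 96-well plates in duplicate, with compounds serially diluted from 64 to 1 μg/mL. Inocula of 2–8 × 10^5 CFU/mL were used in MHB (21 g/L Müller Hinton broth, pH 7.4), either alone or supplemented with tryptone (17 g/L) or yeast extract (3 g/L). After 22 h at 37 °C, absorbance at 600 nm was read. MIC and EC50 were obtained by curve fitting in Sigma Plot from three independent experiments, and ciprofloxacin served as the positive control.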

[7] = biological target: T2, glutathione reductase (GR) from E. coli (Escherichia coli, UniProt P06715); experiment: GR inhibition assay (DTNB reduction); assay type: biochemical; conditions: ± standard deviation, n = 3, 75 min preincubation
T2 construct: purchased Antibodies online
T2 sequence (P06715 1-450): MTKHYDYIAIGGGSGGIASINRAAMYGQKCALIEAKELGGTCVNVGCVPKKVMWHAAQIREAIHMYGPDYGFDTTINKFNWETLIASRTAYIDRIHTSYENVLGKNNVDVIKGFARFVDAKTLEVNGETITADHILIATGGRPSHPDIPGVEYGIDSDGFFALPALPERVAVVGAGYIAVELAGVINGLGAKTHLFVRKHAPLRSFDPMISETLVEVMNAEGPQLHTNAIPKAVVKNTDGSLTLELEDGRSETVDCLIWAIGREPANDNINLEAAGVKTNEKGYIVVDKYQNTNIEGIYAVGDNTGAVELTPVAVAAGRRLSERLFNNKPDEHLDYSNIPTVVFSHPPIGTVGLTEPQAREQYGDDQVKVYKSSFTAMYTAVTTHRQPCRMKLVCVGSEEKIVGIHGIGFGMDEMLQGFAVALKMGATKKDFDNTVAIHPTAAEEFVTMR
Protocol: as §2, §3

[8] = tested on: S. aureus MRSA (DSM 11822, ICB 25701); experiment: microbe, parasite or virus in culture; assay type: cell-based, methicillin resistant S. aureus; conditions: n = 3, TSY
In short: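 Broth microdilution in TSY (30 g/L trypticase soy broth, 3 g/L yeast extract, pH 7.0–7.2), inoculum 2–8 × 10^5 CFU/mL, compounds serially diluted 64 to 1 μg/mL, 22 h at 37 °C. Growth read as absorbance at 600 nm; MIC and EC50 obtained by curve fitting, three independent experiments.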

[9] = tested on: P. aeruginosa PA7 (DSM 24068); experiment: microbe, parasite or virus in culture; assay type: cell-based, Pseudomonas aeruginosa; conditions: n = 3, MHB
In short: as §1

[10] = tested on: A. baumannii (DSM 30007, ATCC 19606); experiment: Broth microdilution antibacterial assay; assay type: cell-based, Acinetobacter baumannii; conditions: n = 3, MHB
In short: as §1

Sequence of E. coli thioredoxin reductase (TrxR) (P0A9P4 whole entry): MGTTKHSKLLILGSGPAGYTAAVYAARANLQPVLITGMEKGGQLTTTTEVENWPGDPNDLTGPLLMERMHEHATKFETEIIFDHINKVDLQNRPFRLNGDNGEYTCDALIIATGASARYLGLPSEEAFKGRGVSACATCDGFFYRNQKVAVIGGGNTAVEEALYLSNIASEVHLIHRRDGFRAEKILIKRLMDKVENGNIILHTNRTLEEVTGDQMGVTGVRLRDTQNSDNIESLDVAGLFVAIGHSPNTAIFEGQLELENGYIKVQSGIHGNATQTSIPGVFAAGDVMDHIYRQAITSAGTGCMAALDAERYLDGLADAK

O=[N+]([O-])[O-].[Ag+] [AgNO3, Silver nitrate, reference compound]
Molar conductivity ΛM ([1]; 1 h after dissolution): 37.8 S cm^2 mol^–^1 | Molar conductivity ΛM ([1]; 24 h after dissolution): 38.1 S cm^2 mol^–^1 | MIC K. pneumoniae ([2]; mean ± standard error, 22 h): 5.9 ± 0.0 µM | EC50 ([2]; mean ± standard error, read-out: EC50 K. pneumoniae): 4.41 ± 0.5 µM | MIC K. pneumoniae (value in brackets) ([2]; 22 h): 1 µg/mL | MIC E. faecium ([3]; mean ± standard error, 22 h): 94.1 ± 0.0 µM | EC50 ([3]; mean ± standard error, read-out: EC50 E. faecium): 75.9 ± 5.7 µM | MIC E. faecium (value in brackets) ([3]; 22 h): 16 µg/mL | IC50 [4]: 0.054 ± 0.005 µM | IC50 [5]: 0.033 ± 0.003 µM | MIC E. coli DSM 1116 in MHB + tryptone ([6]; Müller-Hinton Broth with tryptone (17 g/L), ± SE): 251.1 ± 62.8 µM | MIC E. coli DSM 1116 in MHB + yeast extract ([6]; Müller-Hinton Broth with yeast extract (3 g/L), ± SE): 123.6 ± 29.4 µM | MIC E. coli DSM 1116 in MHB ([6]; Müller-Hinton Broth without additive, ± SE): 5.89 ± 0.0 µM | EC50 ([6]; mean ± standard error, n = 3, MHB): 4.87 ± 0.1 µM | MIC E. coli ([6]; mean ± standard error, n = 3, MHB, 22 h): 5.9 ± 0.0 µM | MIC E. coli (value in brackets) ([6]; n = 3, MHB, 22 h): 1 µg/mL | IC50 [7]: 0.031 ± 0.001 µM | MIC MRSA ([8]; mean ± standard error, 22 h): 188 ± 0.0 µM | EC50 ([8]; mean ± standard error, read-out: EC50 MRSA): 98.9 ± 6.4 µM | MIC MRSA (value in brackets) ([8]; 22 h): 32 µg/mL | MIC P. aeruginosa ([9]; mean ± standard error, 22 h): 5.9 ± 0.0 µM | EC50 ([9]; mean ± standard error, read-out: EC50 P. aeruginosa): 4.12 ± 0.4 µM | MIC P. aeruginosa (value in brackets) ([9]; 22 h): 1 µg/mL | MIC A. baumannii ([10]; mean ± standard error, 22 h): 5.9 ± 0.0 µM | EC50 ([10]; mean ± standard error, read-out: EC50 A. baumannii): 4.16 ± 0.4 µM | MIC A. baumannii (value in brackets) ([10]; 22 h): 1 µg/mL
